Source: patent US20050142204A1 (priority 2001, published 2005)

Columns and labels:
Solubility of triclosan = type: physicochemical
[1] = human, in vivo, 552 mg
Description: Four volunteers were invited randomly to take part in the trial. The volunteers were in a rested and fasted state when the trial began. A single dose of 552 mg (two soft gelatine capsules) was administered and blood samples were drawn 15 times over 36 hours.
Quantitative analysis of the blood samples was conducted using an HPLC method developed and validated at the Research Institute for Industrial Pharmacy. Results of the analysis were evaluated statistically and values for AUC, Cmax and tmax were obtained.
A) Chromatographic Condition: • Analytical instrument: HP1050 series HPLC with a pump, autosampler, UV detector and Chemstation Rev.
B) Sample Preparation with enzymatic hydrolysis: • 1. Pipet 1 ml of plasma into a 5 ml siliconised glass test tube. • 2. Add 1 ml of 0.2 M sodium acetate-acetic acid buffer, pH 5.0. • 3. […] Vortex mix for 10 seconds, seal and incubate at 40° C. for 12 hours. • 5. Add 0.5 ml of the internal standard solution and centrifuge at 14000 rpm (4900 RCF) for 10 minutes before applying to the SPE columns.
C) Internal Standard Solution: • 1. Weight approximately 5 mg of acenaphthene accurately and dissolve in 250 ml of solvent. • 2. Add 0.5 ml of this solution to all standards and samples.
D) Standard Solution: • 1. […] Make further dilutions of 5 ml to 100 ml and 10 ml to 50 ml in water to obtain 80, 16- and 4.0 μg/ml stock solutions.
3. […]

malaria parasites = conditions: Surolia 2001, cited from earlier work
[2] = topical and oral; Bhargava & Leonard 1996; cited from earlier work
[3] = system: fatty acid synthesis in Plasmodium falciparum; conditions: cited from earlier work
[4] = cited from earlier work

Oc1cc(Cl)ccc1Oc1ccc(Cl)cc1Cl [triclosan]
solubility in oils (Solubility of triclosan): very soluble in oils | bioavailability [1]: good in three of the four volunteers | activity against malaria parasites (malaria parasites): active against malaria parasites | effective dose (malaria parasites; malaria): 28 to 38 mg/kg | safety in toxicity studies [2]: safe topically as well as orally | concentration sufficient for 50% inhibition of fatty acid synthesis ([3]; Surolia and Surolia (2001:168), printed in brackets beside the μM value): 580 ng/mL | IC50 ([3]; read-out: concentration sufficient for 50% inhibition of fatty acid synthesis, Surolia and Surolia (2001:168)): 3000 nM | solubility in water [4]: very low solubility in water
